Data taken from patent US20210220328A1, “PYRROLE DERIVATIVES AS ACC INHIBITORS” (Almirall, S.A., priority 2017, published 2021).

How the values were obtained:
[1] = system: sebocytes; details: Hunt D. et al. J Invest Dermatol. 2017; cited from earlier work
[2] = system: sebaceous gland activity; details: Hunt D. et al. J Invest Dermatol. 2017; cited from earlier work
[3] = system: immortalized human sebocyte cell line, SZ95; test: In vitro assay of inhibition of lipid synthesis; type: cell-based; details: 48 h, SZ95 sebocytes
How it was run: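 Human SZ95 sebocytes were preincubated with compound for 30 min, then stimulated with 75 μM arachidonic acid for 48 h at 37 °C. Neutral lipids were stained with AdipoRed and read by fluorescence (ex 485/em 535). % inhibition was normalized between AA-stimulated and unstimulated cells.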

[4] = 75 μM arachidonic acid, AdipoRed, Table 2, finer classes for compounds with IC50 less than 250 nM
[5] = lipid synthesis induced by 75 μM arachidonic acid, AdipoRed fluorescence, Table 1

| Structure (SMILES) | potency inhibiting sebum production by sebocytes [1] | activity in an in vivo model of sebaceous gland activity [2] | IC50 [3, 4] [nM] | IC50 [3, 5] [nM] |
| --- | --- | --- | --- | --- |
| CCCCCCCCCCCCCCOc1ccc(C(=O)OCC(=O)N(C)CC(=O)OCC)o1 [Olumacostat Glasaretil] | low potency | poor activity | – | – |
| CCCCCCCCCCCCCc1c[nH]c(C(=O)OCCOCCOCC)c1F [Example 43, 2-(2-Ethoxyethoxy)ethyl 3-fluoro-4-tridecyl-1H-pyrrole-2-carboxylate] | – | – | < 50 | < 250 |
| CCCCCCCCCCCCCc1c[nH]c(C(=O)OC(C)OC(=O)OCCCCCCCCC)c1F (centres unmarked) [Example 46, 1-(((Nonyloxy)carbonyl)oxy)ethyl 3-fluoro-4-tridecyl-1H-pyrrole-2-carboxylate] | – | – | – | > 5000 |
| CCCCCCCCCCCCCc1c[nH]c(C(=O)OCC(F)(F)F)c1Cl [Example 108, 2,2,2-Trifluoroethyl 3-chloro-4-tridecyl-1H-pyrrole-2-carboxylate] | – | – | – | 250 to 1000 |
| CCCCCCCCCCCCCCOc1c[nH]c(C(=O)O)c1F [Example 75, 3-Fluoro-4-(tetradecyloxy)-1H-pyrrole-2-carboxylic acid] | – | – | < 50 | < 250 |
| CCCCCCCCCCCc1cc(F)c(C(=O)O)[nH]1 [Example 119, 3-Fluoro-5-undecyl-1H-pyrrole-2-carboxylic acid] | – | – | 50 to 100 | < 250 |
| CCCCCCCCCCCCCCCc1c[nH]c(C(=O)O)c1Cl [Example 62, 3-Chloro-4-pentadecyl-1H-pyrrole-2-carboxylic acid] | – | – | – | 250 to 1000 |
| CCCCCCCCCCCCOc1c[nH]c(C(=O)O)c1 [Example 1, 4-(Dodecyloxy)-1H-pyrrole-2-carboxylic acid] | – | – | – | 250 to 1000 |
| CCCCCCCCCCCCCc1c[nH]c(C(=O)OC(C)OC(=O)OC(C)(C)C)c1F (centres unmarked) [Example 45, 1-((Tert-butoxycarbonyl)oxy)ethyl 3-fluoro-4-tridecyl-1H-pyrrole-2-carboxylate] | – | – | 50 to 100 | < 250 |
| CCCCCCCCCC(F)(F)COc1c[nH]c(C(=O)O)c1F [Example 98, 4-((2,2-Difluoroundecyl)oxy)-3-fluoro-1H-pyrrole-2-carboxylic acid] | – | – | – | 250 to 1000 |
| CCCCCCCCCCCC(F)(F)Cc1c[nH]c(C(=O)O)c1F [Example 94, 4-(2,2-Difluorotridecyl)-3-fluoro-1H-pyrrole-2-carboxylic acid] | – | – | 100 to 250 | < 250 |
| CCCCCCCCCCCCc1cc(Cl)c(C(=O)OCC(O)CO)[nH]1 (centres unmarked) [Example 118, 2,3-Dihydroxypropyl 3-chloro-5-dodecyl-1H-pyrrole-2-carboxylate] | – | – | – | 250 to 1000 |
| CCCCCCCCCCCCCCc1cc(F)c(C(=O)O)[nH]1 [Example 121, 3-Fluoro-5-tetradecyl-1H-pyrrole-2-carboxylic acid] | – | – | < 50 | < 250 |
| CCCCCCCCCCCc1cc(Cl)c(C(=O)O)[nH]1 [Example 64, 3-Chloro-5-undecyl-1H-pyrrole-2-carboxylic acid] | – | – | 50 to 100 | < 250 |
| CCCCCCCCCCCCC(F)COc1c[nH]c(C(=O)O)c1Cl (centres unmarked) [Example 99, 3-Chloro-4-((2-fluorotetradecyl)oxy)-1H-pyrrole-2-carboxylic acid] | – | – | 100 to 250 | < 250 |
| CCCCCCCCCC(C)(C)CCc1c[nH]c(C(=O)O)c1F [Example 95, 4-(3,3-Dimethyldodecyl)-3-fluoro-1H-pyrrole-2-carboxylic acid] | – | – | < 50 | < 250 |
| CCCCCCCCCCC(C)(C)Cc1c[nH]c(C(=O)O)c1F [Example 102, 4-(2,2-Dimethyldodecyl)-3-fluoro-1H-pyrrole-2-carboxylic acid] | – | – | < 50 | < 250 |
| CCCCCCCCCCCCc1cc(Cl)c(C(=O)OC(C)OC(=O)OCCOC)[nH]1 (centres unmarked) [Example 116, 1-(((2-Methoxyethoxy)carbonyl)oxy)ethyl 3-chloro-5-dodecyl-1H-pyrrole-2-carboxylate] | – | – | 50 to 100 | < 250 |
| CCCCCCCCCCCCCCc1c[nH]c(C(=O)O)c1F [Example 52, 3-Fluoro-4-tetradecyl-1H-pyrrole-2-carboxylic acid] | – | – | < 50 | < 250 |
